Experimental data taken from patent publication US9102623B2, “Pyridinecarboxamides, useful-plant-protecting composition comprising them and processes for their preparation and their use” (Bayer Cropscience AG, priority 2007, dated 2015).

What was measured:
Assay type in all cases: in vivo
barley = assay: Post-emergence safener action in barley with the herbicide mesosulfuron-methyl; conditions: greenhouse, visual scoring of damage
Excerpt: (§1) The damage to the plants is scored visually using a scale of 0-100%, in comparison to control plants:
(§2) 0%=no noticeable effect compared to the untreated plant
(§3) 100%=the treated plants dies.
(§4) Seeds or rhizome pieces of monocotyledonous and dicotyledonous harmful plants and crop plants are placed in sandy loam soil in plastic pots, covered with soil and cultivated in the greenhouse under good growth conditions. Alternatively, harmful plants encountered in paddy rice cultivation are cultivated in pots in which the surface of the soil is covered by up to 2 cm of water. Three weeks after sowing, the test plants are treated at the three-leaf stage. The herbicide/safener active compound combinations according to the invention, formulated as emulsion concentrates, and in parallel tests the individual active compounds formulated in a corresponding manner, are sprayed at various dosages at a water application rate of […] (converted) onto the green parts of the plants, and, after the test plants were left to stand in the greenhouse for about 2 to 3 weeks under optimum growth conditions, the effect of the preparations is scored visually in comparison to untreated controls. In the case of rice or harmful plants encountered in the cultivation of rice, the active compounds are also added directly to the irrigation water (application analogously to the so-called granule application) or sprayed onto the plants and into the irrigation water. […]

corn [1] = assay: Pre-emergence safener action in corn with the herbicide isoxaflutol; conditions: greenhouse, visual scoring after 3 to 4 weeks
Excerpt: as §1, §2, §3
Seeds or rhizome pieces of monocotyledonous and dicotyledonous weed plants and crop plants were placed in sandy loam soil in plastic pots and covered with soil. The herbicide/safener active compound combinations according to the invention, formulated as suspension emulsion concentrates, and in parallel tests the individual active compounds formulated in a corresponding manner, were then, at various dosages at a water application rate of 600 to 800 l/ha (converted), applied to the surface of the covering soil.
After the treatment, the pots were placed in the greenhouse and kept under good growth conditions for the weeds and the crop plants. Visual scoring of the plant damage or emergence damage was carried out after the test plants had emerged after a test period of 3 to 4 weeks, in comparison to untreated controls.

corn [2] = assay: Post-emergence safener action in corn with the herbicide tembotrione; conditions: greenhouse, visual scoring of damage
Excerpt: as §1, §2, §3, §4

| Compound | safener action for the herbicide mesosulfuron-methyl (barley) | safener action in combination with the herbicide isoxaflutol (corn [1]) | safener action for the herbicide tembotrione (corn [2]) |
| --- | --- | --- | --- |
| CCONC(=O)c1ccc(C(F)(F)Cl)[nH]c1=O [Compound 193] | good safener action | good safener action |  |
| CCC(C)NC(=O)c1ccc(C(F)(F)C(F)(F)C(F)(F)F)[nH]c1=O (centres unmarked) [Compound 1636] | good safener action | good safener action | good safener action |
| NC(=O)c1ccc(C(F)(F)C(F)(F)F)[nH]c1=O [Compound 341, 2-Oxo-6-(pentafluoroethyl)-1,2-dihydropyridine-3-carboxamide] | good safener action | good safener action | good safener action |
| CCNC(=O)c1ccc(C(F)(F)C(F)(F)C(F)(F)F)[nH]c1=O [Compound 1597] |  | good safener action | good safener action |
| CC(C)CNC(=O)c1ccc(C(F)(F)C(F)(F)C(F)(F)F)[nH]c1=O [Compound 1625] |  | good safener action | good safener action |
| CNC(=O)c1ccc(C(F)(F)C(F)F)[nH]c1=O [Compound 1368, N-Methyl-2-oxo-6-(1,1,2,2-tetrafluoroethyl)-1,2-dihydropyridine-3-carboxamide] |  | good safener action | good safener action |
| CONC(=O)c1ccc(C(F)(F)Cl)[nH]c1=O [Compound 194] | good safener action | good safener action |  |
| CCNC(=O)c1ccc(C(F)(F)F)[nH]c1=O [Compound 2] | good safener action | good safener action |  |
| CCC(CC)NC(=O)c1ccc(C(F)(F)C(F)(F)F)[nH]c1=O [Compound 392] | good safener action | good safener action |  |
